Test results from PMC7145303, “In Vitro Activities of MMV Malaria Box Compounds against the Apicomplexan Parasite Neospora caninum, the Causative Agent of Neosporosis in Animals” (Molecules, 2020).
Like-named read-outs stand apart in the source and are kept apart here.

What was measured:
Cryptosporidium parvum = system: Cryptosporidium parvum; parameters: method as in PMID 24566188; details: cited from earlier work
[1] = parameters: AUC0-inf / AUC0-last: unit not given here; details: mice, p.o., data provided by MMV, cited from earlier work; for AUC0-last / MRT0-last / Tlast / Tmax / Cmax: 114 µmol/kg (1),(5), 119 µmol/kg (2); for Cmax: plasma
[2] = system: Plasmodium falciparum blood forms; parameters: method as in PMID 31665424; details: cited from earlier work
Theileria annulata = details: cited from earlier work; for Therapeutic index: T. annulata vs macrophages
N. caninum tachyzoites [3] = format: cell-based, Neospora caninum; details: 500 nM, TEM at 6, 12, 24, 48 h of treatment
Description: The transmission electron microscopy of N. caninum-infected HFF monolayers was done as previously described. Briefly, HFFs were grown to confluency in 6-well tissue culture devices and were infected with freshly isolated N. caninum tachyzoites during 2 h at 37 °C/5% CO2. After one wash in PBS, treatments with the compounds (1), (2), and (5) were initiated, all at 500 nM. The controls were treated with the corresponding amount of DMSO. After 6, 12, 24, or 48 h, samples were rinsed in PBS, and were fixed in 100 mM of cacodylate buffer pH7.3 containing 2.5% glutaraldehyde for 2 h at room temperature. The cells were scraped and centrifuged at 1000 g for 10 min at 4 °C and, and the resulting pellet was further fixed in the same solution at 4 °C overnight, followed by post-fixation in 2% OsO4 in cacodylate buffer for 4 h at 4 °C. Subsequently, the specimens were washed and pre-stained in Uranyless^TM (Electron Microscopy Sciences, Hatfield, PA, USA), followed by dehydration in a graded series of ethanol (30%, 50%, 70%, 90%, and 100%). They were finally embedded in Epon 820 epoxy resin over a period of 2 days with 3 resin changes. The resin was polymerized at 65 °C for 24 h, and 80-nm sections were cut on a Reichert and Jung ultramicrotome. The sections were loaded onto 300-mesh copper grids (Plano GmbH, Marburg, Germany) and were stained with Uranyless^TM and lead citrate as described.

[4] = system: human foreskin fibroblasts (HFFs); assay: HFF viability, Alamar Blue assay; format: cell-based; details: 1 µM compound/well, uninfected confluent HFF, 3 days
Description: For an initial screen, 390 compounds (1 µM compound/well) were added to human foreskin fibroblasts (HFFs) previously seeded in 96-well-plates. DMSO (0.25%) was included as a solvent control. HFF monolayers were either left uninfected or were infected with 10^3 N. caninum beta-galactosidase expressing tachyzoites per well. After 3 days, N. caninum proliferation was assayed by measuring beta-galactosidase activity, and HFF viability was monitored using the Alamar Blue assay. This screen was repeated once for confirmation, yielding identical results. […]
To define the cutoff values in the initial screening, compounds were regarded as effective against N. caninum when the beta-galactosidase values were lower than the mean values of the controls (8 replicates) minus three times the standard deviation of these control values. […] The IC50 values were calculated after the logit-log transformation of the relative growth (RG; control = 1) according to the formula ln (RG/(1 − RG)) = a × ln(drug concentration) + b, and the subsequent regression analysis was carried out using the corresponding software tool contained in the Excel software package (Microsoft, Seattle, WA, USA).

N. caninum tachyzoites [5] = assay: N. caninum β-galactosidase reporter strain proliferation in HFF (screen and inhibition curves); format: cell-based; details: Neospora caninum
Description: Figure 2 Dose response curves of 9 Medicines for Malaria Venture (MMV) Malaria Box compounds. […] The inhibition of N. caninum tachyzoite proliferation was determined using a β-galactosidase reporter strain in the presence of a concentration series of compounds added prior to the infection of confluent human foreskin fibroblasts by tachyzoites. The mean values ± SE are indicated for quadruplicates.
For an initial screen, 390 compounds (1 µM compound/well) were added to human foreskin fibroblasts (HFFs) previously seeded in 96-well-plates. DMSO (0.25%) was included as a solvent control. HFF monolayers were either left uninfected or were infected with 10^3 N. caninum beta-galactosidase expressing tachyzoites per well. After 3 days, N. caninum proliferation was assayed by measuring beta-galactosidase activity, and HFF viability was monitored using the Alamar Blue assay. This screen was repeated once for confirmation, yielding identical results. Forty compounds showing values lower than the cut-off of the beta-galactosidase assay were regarded as effective against N. caninum, compounds yielding values lower than the cutoff of the Alamar Blue assay were regarded as cytotoxic. Effective compounds without cytotoxicity were regarded as potential hits and were retained for further experiments. The IC50 values (inhibitory concentration of 50% of the solvent control value) of selected compounds were determined in quadruplicate wells in the same assay set-up and were calculated as described.
To define the cutoff values in the initial screening, compounds were regarded as effective against N. caninum when the beta-galactosidase values were lower than the mean values of the controls (8 replicates) minus three times the standard deviation of these control values. Furthermore, compounds were regarded as cytotoxic when the Alamar Blue values were lower than the mean values of the untreated controls (8 replicates) minus three times the standard deviation of these control values. The IC50 values were calculated after the logit-log transformation of the relative growth (RG; control = 1) according to the formula ln (RG/(1 − RG)) = a × ln(drug concentration) + b, and the subsequent regression analysis was carried out using the corresponding software tool contained in the Excel software package (Microsoft, Seattle, WA, USA).

[6] = source of values not stated; cited from earlier work
Brugia malayi = system: Brugia malayi; parameters: method as in PMID 27467575; details: cited from earlier work
cysteine proteinases = system: cysteine proteinases; parameters: method as in PMID 27467575; details: functional assays; cited from earlier work
[7] = 72 h, 3 days, concentration range 0–250 nM, with 95% confidence intervals

| SMILES | AUC0-last [1] | MRT0-last [1] [h] | Tlast [1] [h] | Tmax [1] [h] | Cmax [1] [nM] | Rapidity of action against P. falciparum blood forms [2] | Therapeutic index (Theileria annulata) | Effectiveness against T. annulata (Theileria annulata) | Effects on the ultrastructure of N. caninum tachyzoites (N. caninum tachyzoites [3]) | IC50 (N. caninum tachyzoites [5]; [7]) [nM] | LogP [6] | Effectiveness against C. parvum (Cryptosporidium parvum) | other results |
| --- | --- | --- | --- | --- | --- | --- | --- | --- | --- | --- | --- | --- | --- |
| CN(C)c1ccc(C(O)(c2ccc(N(C)C)cc2)c2ccc(N(C)C)cc2)cc1 [Compound (1)] | 27.2 | 4.80 | 9.00 | 5.00 | 1090 | more slowly than artesunate, but faster than atovaquone | 2.5 | most effective against T. annulata | cytoplasmic vacuoles that were already detectable after 6 h of treatment | 25 ± 5 | 4.76 |  | IC50 (Cryptosporidium parvum; read-out: IC50 against Cryptosporidium parvum): ~800 nM; Effects on the ultrastructure of N. caninum tachyzoites (N. caninum tachyzoites [3]; listed as MMV665941): specifically induced distinct alterations in the tachyzoites; Cytotoxicity against HFFs [4]: did not affect confluent HFFs |
| O=C(Nc1cccc(C(F)(F)F)c1)c1cc(Cl)ccc1O [Compound (2)] |  | 5.24 | 9.00 | 6.33 | 62 | very rapidly |  |  | after a treatment duration of 12 h (Figure 6C), the loss of the tachyzoite mitochondrial matrix was evident | 71 ± 30 | 6.06 |  | Effects on the ultrastructure of N. caninum tachyzoites (N. caninum tachyzoites [3]; listed as MMV665807): specifically induced distinct alterations in the tachyzoites |
| O=C1c2ccc3c4c(ccc(c24)C(=O)N1CCCCO)C(=O)N(CCCCO)C3=O [Compound (5)] | 0.475 | 1.55 | 7.00 | 0.444 | 308 |  |  |  | ongoing proliferation despite clear ultrastructural alterations | 150 ± 30 | −1.30 | effective against C. parvum with an IC50 in same range | AUC0-inf ([1]; 114 µmol/kg): 0.486; MRT0-inf ([1]; 114 µmol/kg): 1.80 h; T1/2 ([1]; 114 µmol/kg): 1.48 h; Effects on the ultrastructure of N. caninum tachyzoites (N. caninum tachyzoites [3]; listed as MMV009085): specifically induced distinct alterations in the tachyzoites; IC50 (N. caninum tachyzoites [5]): < 200 nM |
| COc1ccc(C(=O)NC(c2ccc(Cl)cc2Cl)c2cc(Cl)c3cccnc3c2O)cc1 (stereo not drawn) [Compound (4)] |  |  |  |  |  | relatively slowly | around 18 | most effective against T. annulata |  | 79 ± 10 | 6.15 | effective against C. parvum | Effectiveness against the helminth Brugia malayi (Brugia malayi): effective |
| CCCOCc1cc(CN2CCN(c3cccc(Cl)c3)CC2)c(O)c2ncccc12 [Compound (3)] |  |  |  |  |  | very slowly |  |  |  | 99 ± 10 | 4.71 |  | Inhibition of cysteine proteinases (cysteine proteinases): inhibits cysteine proteinases |
